Reference: ChEMBL document CHEMBL1201862, “PubChem BioAssay data set” (2004)
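Compound exposure: 48 hours, 5 concentrations, 96-well plates. GI50 = concentration required for 50% inhibition of growth.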 Activity calls are given as the source filed them. No stated cut-off is given here; in the data, active = GI50 up to about 1.1 µM and inactive = higher.

Columns and labels:
Test in all cases: NCI tumour cell line growth inhibition, 48 h
SW-620 = tested on: SW-620
UO-31 = tested on: UO-31
ACHN = tested on: ACHN
A498 = tested on: A498
T47D = tested on: T47D
RPMI-8226 = tested on: RPMI-8226
RXF 393 = tested on: RXF 393
786-0 = tested on: 786-0
HOP-92 = tested on: HOP-92
TK-10 = tested on: TK-10
MDA-N = tested on: MDA-N
K562 = tested on: K562
SF-539 = tested on: SF-539
LOX IMVI = tested on: LOX IMVI
HCT-15 = tested on: HCT-15
SNB-75 = tested on: SNB-75
OVCAR-4 = tested on: OVCAR-4
SK-MEL-5 = tested on: SK-MEL-5
U-251 = tested on: U-251
SF-295 = tested on: SF-295
NCI-H226 = tested on: NCI-H226
A549 = tested on: A549
SK-MEL-2 = tested on: SK-MEL-2
BT-549 = tested on: BT-549
CCRF-CEM = tested on: CCRF-CEM
IGROV-1 = tested on: IGROV-1
UACC-257 = tested on: UACC-257
HCT-116 = tested on: HCT-116
HOP-62 = tested on: HOP-62
OVCAR-5 = tested on: OVCAR-5
HL-60 = tested on: HL-60
NCI/ADR-RES = tested on: NCI/ADR-RES
KM12 = tested on: KM12
NCI-H460 = tested on: NCI-H460
DU-145 = tested on: DU-145
Malme-3M = tested on: Malme-3M
MDA-MB-231 = tested on: MDA-MB-231
SF-268 = tested on: SF-268
Hs-578T = tested on: Hs-578T
CAKI-1 = tested on: CAKI-1
EKVX = tested on: EKVX
HCC 2998 = tested on: HCC 2998
NCI-H23 = tested on: NCI-H23
MOLT-4 = tested on: MOLT-4
SNB-19 = tested on: SNB-19
HT-29 = tested on: HT-29
OVCAR-3 = tested on: OVCAR-3
OVCAR-8 = tested on: OVCAR-8
SR = tested on: SR
SK-MEL-28 = tested on: SK-MEL-28
COLO 205 = tested on: COLO 205
MDA-MB-435 = tested on: MDA-MB-435
SK-OV-3 = tested on: SK-OV-3
UACC-62 = tested on: UACC-62
PC-3 = tested on: PC-3
MCF7 = tested on: MCF7
SN12C = tested on: SN12C
M14 = tested on: M14
NCI-H522 = tested on: NCI-H522

## CC(C)(C)c1cc(C(C)(C)C)c(SC2OC(CO)C(O)C(O)C2O)c(O)c1O (centres undefined)
SW-620
  GI50: 19.3 µM (inactive)
UO-31
  GI50: 11.4 µM (inactive)
ACHN
  GI50: 6.53 µM (inactive)
A498
  GI50: 14.7 µM (inactive)
T47D
  GI50: 17.6 µM (inactive)
RPMI-8226
  GI50: 15.1 µM (inactive)
RXF 393
  GI50: 0.36 µM (active)
786-0
  GI50: 12.7 µM (inactive)
HOP-92
  GI50: 11.6 µM (inactive)
TK-10
  GI50: 12.1 µM (inactive)
MDA-N
  GI50: 4.12 µM (inactive)
K562
  GI50: 2.93 µM (inactive)
SF-539
  GI50: 3.48 µM (inactive)
LOX IMVI
  GI50: 8.95 µM (inactive)
HCT-15
  GI50: 4.54 µM
SNB-75
  GI50: 1.55 µM (inactive)
OVCAR-4
  GI50: 12.3 µM (inactive)
SK-MEL-5
  GI50: 5.57 µM (inactive)
U-251
  GI50: 7.43 µM (inactive)
SF-295
  GI50: 8.39 µM (inactive)
NCI-H226
  GI50: 12.3 µM (inactive)
A549
  GI50: 3.84 µM (inactive)
SK-MEL-2
  GI50: 11.1 µM (inactive)
BT-549
  GI50: 10.6 µM (inactive)
CCRF-CEM
  GI50: 5.27 µM (inactive)
IGROV-1
  GI50: 9.64 µM (inactive)
UACC-257
  GI50: 20.9 µM (inactive)
HCT-116
  GI50: 13.1 µM (inactive)
HOP-62
  GI50: 13.2 µM (inactive)
OVCAR-5
  GI50: 9.18 µM (inactive)
HL-60
  GI50: 3.27 µM (inactive)
NCI/ADR-RES
  GI50: 10.3 µM (inactive)
KM12
  GI50: 6.87 µM (inactive)
NCI-H460
  GI50: 3.24 µM (inactive)
DU-145
  GI50: 13.7 µM (inactive)
Malme-3M
  GI50: 12.6 µM (inactive)
MDA-MB-231
  GI50: 17.8 µM (inactive)
SF-268
  GI50: 6.97 µM (inactive)
Hs-578T
  GI50: 3.22 µM (inactive)
CAKI-1
  GI50: 17.9 µM (inactive)
EKVX
  GI50: 10.8 µM (inactive)
HCC 2998
  GI50: 6.22 µM (inactive)
NCI-H23
  GI50: 4.42 µM (inactive)
MOLT-4
  GI50: 9.1 µM (inactive)
SNB-19
  GI50: 8.02 µM (inactive)
HT-29
  GI50: 7.1 µM (inactive)
OVCAR-3
  GI50: 7.66 µM (inactive)
OVCAR-8
  GI50: 7.62 µM (inactive)
SR
  GI50: 4.52 µM (inactive)
SK-MEL-28
  GI50: 15.6 µM (inactive)
COLO 205
  GI50: 8.45 µM (inactive)
MDA-MB-435
  GI50: 4.94 µM (inactive)
SK-OV-3
  GI50: 15.2 µM (inactive)
UACC-62
  GI50: 2.2 µM (inactive)
PC-3
  GI50: 9.18 µM (inactive)
MCF7
  GI50: 5.4 µM (inactive)
SN12C
  GI50: 10.8 µM (inactive)
M14
  GI50: 18.3 µM (inactive)
NCI-H522
  GI50: 7.21 µM (inactive)
